Test results from patent publication US12404250B2, “PARP inhibitors for treating cancer and asthma” (Oregon Health & Science University, priority 2018, dated 2025).

Legend:
PARP10 = biological target: T1, PARP10 (Homo sapiens, UniProt Q53GL7); assay: GFP-PARP10 auto-MARylation in HEK 293T cells (Western blot); conditions: for Inhibition of PARP10 auto-MARylation in cells at 3 μM: HEK 293T cells transfected with GFP-PARP10, 3 μM for 3 h
T1 sequence (Q53GL7 1-1025): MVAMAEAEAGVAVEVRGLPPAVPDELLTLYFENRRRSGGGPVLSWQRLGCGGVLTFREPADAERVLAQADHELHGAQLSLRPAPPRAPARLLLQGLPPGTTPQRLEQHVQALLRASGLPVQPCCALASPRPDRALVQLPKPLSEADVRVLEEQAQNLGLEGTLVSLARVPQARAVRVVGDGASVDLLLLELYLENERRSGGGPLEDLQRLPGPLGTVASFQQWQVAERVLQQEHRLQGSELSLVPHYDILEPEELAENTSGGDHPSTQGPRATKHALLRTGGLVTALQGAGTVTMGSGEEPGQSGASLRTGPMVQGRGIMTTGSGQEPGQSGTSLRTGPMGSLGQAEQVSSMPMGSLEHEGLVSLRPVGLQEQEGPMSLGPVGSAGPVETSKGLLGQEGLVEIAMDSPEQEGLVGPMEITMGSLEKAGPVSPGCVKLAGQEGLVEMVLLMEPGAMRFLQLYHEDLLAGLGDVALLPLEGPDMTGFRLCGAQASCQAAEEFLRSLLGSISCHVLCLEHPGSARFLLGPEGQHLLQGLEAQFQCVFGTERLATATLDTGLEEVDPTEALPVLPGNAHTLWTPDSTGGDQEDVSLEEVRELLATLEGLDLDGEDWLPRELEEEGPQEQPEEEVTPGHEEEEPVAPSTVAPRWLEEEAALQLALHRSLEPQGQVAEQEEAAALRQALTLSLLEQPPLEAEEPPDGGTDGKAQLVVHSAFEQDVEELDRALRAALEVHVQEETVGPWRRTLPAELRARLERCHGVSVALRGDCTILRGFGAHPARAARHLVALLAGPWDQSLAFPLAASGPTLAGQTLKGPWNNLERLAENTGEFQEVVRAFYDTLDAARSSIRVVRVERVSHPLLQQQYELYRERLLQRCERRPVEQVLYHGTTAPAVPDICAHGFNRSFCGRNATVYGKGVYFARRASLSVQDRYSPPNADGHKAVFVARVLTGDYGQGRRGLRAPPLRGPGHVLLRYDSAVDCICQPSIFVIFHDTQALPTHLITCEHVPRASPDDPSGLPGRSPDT

PARP5 bcat = biological target: T2, PARP5 bcat (Homo sapiens, UniProt Q9H2K2); assay: In vitro IC50, PARP5bcat; format: biochemical; conditions: SEM from a minimum of three dose-response experiments
T2 construct: bcat

PARP14 cat-wwe = biological target: T3, PARP14 cat-wwe (Homo sapiens, UniProt Q460N5); assay: In vitro IC50, PARP14 cat-wwe; format: biochemical; conditions: SEM from a minimum of three dose-response experiments
T3 construct: PARP14 cat-wwe; no borders given for the assay protein
T3 sequence (Q460N5 1523-1801 limits assumed): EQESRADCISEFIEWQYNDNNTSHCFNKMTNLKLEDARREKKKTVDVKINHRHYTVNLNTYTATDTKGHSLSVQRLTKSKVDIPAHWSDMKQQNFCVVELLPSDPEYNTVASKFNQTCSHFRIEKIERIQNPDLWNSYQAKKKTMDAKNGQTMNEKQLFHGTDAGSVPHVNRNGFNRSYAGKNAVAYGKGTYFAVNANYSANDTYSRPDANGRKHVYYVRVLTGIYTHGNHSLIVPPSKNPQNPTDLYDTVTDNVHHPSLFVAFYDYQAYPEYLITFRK

PARP15 cat = biological target: T4, PARP15 cat (Homo sapiens, UniProt Q460N3); assay: In vitro IC50, PARP15 cat; format: biochemical; conditions: SEM from a minimum of three dose-response experiments
T4 construct: cat-wwe; cat
T4 sequence (Q460N3 482-678 limits assumed): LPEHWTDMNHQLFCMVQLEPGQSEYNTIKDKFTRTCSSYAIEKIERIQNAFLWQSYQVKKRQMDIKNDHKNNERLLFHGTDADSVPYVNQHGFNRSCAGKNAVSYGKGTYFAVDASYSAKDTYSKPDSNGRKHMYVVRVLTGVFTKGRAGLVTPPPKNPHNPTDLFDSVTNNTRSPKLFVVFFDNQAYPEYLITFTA

PARP12 = biological target: T5, PARP12 (Homo sapiens, UniProt Q9H0J9); assay: In vitro IC50, immunoprecipitated GFP-PARP12 auto-MARylation; format: biochemical
T5 construct: expressed in transfected cells; host or cells: HEK 293T
T5 sequence (Q9H0J9 1-701): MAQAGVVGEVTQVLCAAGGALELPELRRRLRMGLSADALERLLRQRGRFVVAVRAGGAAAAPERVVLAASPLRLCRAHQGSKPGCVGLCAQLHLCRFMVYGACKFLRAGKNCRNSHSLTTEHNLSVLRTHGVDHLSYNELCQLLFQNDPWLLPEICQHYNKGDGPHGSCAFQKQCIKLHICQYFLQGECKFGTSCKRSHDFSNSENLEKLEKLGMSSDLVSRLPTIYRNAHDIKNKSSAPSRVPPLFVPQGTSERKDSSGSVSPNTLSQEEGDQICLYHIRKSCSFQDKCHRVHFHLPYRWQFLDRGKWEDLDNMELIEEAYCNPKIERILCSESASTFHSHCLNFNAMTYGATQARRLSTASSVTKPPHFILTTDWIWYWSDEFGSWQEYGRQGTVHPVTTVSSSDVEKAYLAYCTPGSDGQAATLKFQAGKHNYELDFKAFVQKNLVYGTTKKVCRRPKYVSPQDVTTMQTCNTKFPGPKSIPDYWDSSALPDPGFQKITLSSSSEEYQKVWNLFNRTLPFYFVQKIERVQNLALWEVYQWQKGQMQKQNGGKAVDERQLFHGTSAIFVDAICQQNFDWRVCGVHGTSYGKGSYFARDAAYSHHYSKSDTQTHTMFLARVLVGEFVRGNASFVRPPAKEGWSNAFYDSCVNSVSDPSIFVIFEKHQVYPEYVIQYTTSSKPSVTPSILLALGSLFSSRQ
Protocol: Auto-MARylation was analyzed by Western blot with an ADP-ribose (ADPr) binding reagent (uncropped blots shown below).

PARP 3 = biological target: T6, PARP 3 (Homo sapiens, UniProt Q9Y6F1); assay: In vitro IC50, PARP3; format: biochemical; conditions: SEM from a minimum of three dose-response experiments
T6 sequence (Q9Y6F1 1-533): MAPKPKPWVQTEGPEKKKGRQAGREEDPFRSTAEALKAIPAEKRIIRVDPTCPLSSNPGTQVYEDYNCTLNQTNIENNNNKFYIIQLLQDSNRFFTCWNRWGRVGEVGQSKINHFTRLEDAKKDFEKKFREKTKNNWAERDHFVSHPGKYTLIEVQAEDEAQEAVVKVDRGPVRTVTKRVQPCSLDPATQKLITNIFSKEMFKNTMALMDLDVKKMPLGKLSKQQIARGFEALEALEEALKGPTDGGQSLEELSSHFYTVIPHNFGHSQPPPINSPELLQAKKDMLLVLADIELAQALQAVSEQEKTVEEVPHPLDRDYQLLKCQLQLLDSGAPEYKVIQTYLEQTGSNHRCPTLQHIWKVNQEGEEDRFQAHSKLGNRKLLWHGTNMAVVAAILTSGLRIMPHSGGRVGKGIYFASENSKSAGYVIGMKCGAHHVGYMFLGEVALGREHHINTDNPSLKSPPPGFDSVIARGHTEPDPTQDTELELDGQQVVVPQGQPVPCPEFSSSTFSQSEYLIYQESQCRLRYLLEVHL

T2 sequence (Q9H2K2 959-1164): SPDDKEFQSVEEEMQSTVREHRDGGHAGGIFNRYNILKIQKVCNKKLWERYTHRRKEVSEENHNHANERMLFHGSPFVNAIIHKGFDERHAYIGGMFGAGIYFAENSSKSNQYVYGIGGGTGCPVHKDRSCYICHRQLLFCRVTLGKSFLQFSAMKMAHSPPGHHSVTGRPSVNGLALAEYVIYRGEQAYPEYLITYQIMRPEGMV

| SMILES | Inhibition of PARP10 auto-MARylation in cells at 3 μM (PARP10) | Inhibition of PARP10 auto-MARylation in cells, dose response (PARP10; HEK 293T cells transfected with GFP-PARP10, increasing concentrations for 90 min) | IC50 (PARP5 bcat) | IC50 (PARP14 cat-wwe) | IC50 (PARP15 cat) | IC50 (PARP12) | IC50 (PARP 3) |
| --- | --- | --- | --- | --- | --- | --- | --- |
| CC#Cc1ccc2c(=O)[nH]c(CSc3ccc(C(=O)O)cc3)nc2c1C [ITK6, 4-(((8-methyl-4-oxo-7-(prop-1-yn-1-yl)-3,4-dihydroquinazolin-2-yl)methyl)thio) benzoic acid] | inhibits PARP10 auto-MARylation in cells | inhibits PARP10 auto-MARylation in cells in a dose dependent manner | > 30000 nM | 917 ± 86 nM | 496 ± 190 nM |  |  |
| CC#Cc1ccc2c(=O)[nH]c(CSc3ncccn3)nc2c1C [ITK7, 8-methyl-7-(prop-1-yn-1-yl)-2-((pyrimidin-2-ylthio)methyl)quinazolin-4(3H)-one] | does not inhibit PARP10 |  | > 30000 nM | 2860 ± 350 nM | > 30000 nM | > 3000 nM | > 30000 nM |
